Data on 26 molecules can be found in patent US20090048258A1, “Amide Compound” (priority 2005, published 2009).

Molecules are shown by their SMILES.

In one test the target is T1, Human DGAT1 (Homo sapiens, UniProt O75907).
T1 construct: my translation of the primer: M-G-DYKDDDD-GDRGSSRRR) (N); made in house; host or cells: Sf9 insect cells (recombinant baculovirus BAC-DGAT1, pFASTBAC1); microsome fraction
T1 sequence (O75907 1-488): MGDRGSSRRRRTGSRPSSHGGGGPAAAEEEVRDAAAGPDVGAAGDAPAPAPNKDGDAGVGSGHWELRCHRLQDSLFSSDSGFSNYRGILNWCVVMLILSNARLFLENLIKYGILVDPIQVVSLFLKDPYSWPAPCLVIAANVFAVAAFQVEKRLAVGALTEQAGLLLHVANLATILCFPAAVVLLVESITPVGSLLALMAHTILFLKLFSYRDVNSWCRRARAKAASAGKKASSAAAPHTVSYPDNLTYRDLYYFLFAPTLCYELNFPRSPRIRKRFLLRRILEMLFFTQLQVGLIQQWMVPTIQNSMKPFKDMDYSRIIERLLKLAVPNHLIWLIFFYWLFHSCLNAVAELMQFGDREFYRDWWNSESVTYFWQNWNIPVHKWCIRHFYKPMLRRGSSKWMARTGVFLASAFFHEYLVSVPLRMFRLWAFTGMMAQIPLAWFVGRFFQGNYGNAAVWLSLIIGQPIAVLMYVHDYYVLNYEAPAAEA
The test can be described thus: DGAT inhibitory activity: [14C]-triglyceride synthesis by DGAT1 high expression Sf9 microsome. Format: biochemical. The conditions noted are these: Table 1, 25 μM dioleoylglycerol, 25 μM [14C]-Oleoyl-CoA, 32° C., 15 min, read-out: DGAT inhibitory activity (according to IC50). The procedure:
The primer base sequence is shown below.
The PCR reaction was conducted using a KOD-plus kit (TOYOBO). The obtained PCR product was electrophoresed on agarose gel (1%), the DNA fragment amplified by PCR was recovered from the gel, and then digested with restriction enzymes EcoRI and SpeI. […] Furthermore, using BAC-TO-BAC Baculovirus Expression System (Invitrogen), recombinant baculovirus BAC-DGAT1 was prepared.
SF9 cells were sown at 1×10^6 cells/ml on Sf-900II SEM medium (1 L, Invitrogen) containing 10% fetal calf serum (Trace), 50 mg/L gentamicin (Invitrogen) and 0.1% Pluronic F-68 (Invitrogen), and shaking culture was performed using a 2 L volume Erlenmeyer at 27° C., 100 rpm. After culturing for 24 hr, recombinant baculovirus BAC-DGAT1 (6.7 mL) was added, and the mixture was further cultured for 3 days. The culture medium was centrifuged at 2,000 rpm for 5 min to give virus-infected cells. The infected cells were washed with a phosphate buffered saline (Invitrogen), centrifuged under the same conditions, and the cells were preserved at −80° C. The cryopreserved cells were thawed in ice, suspended in buffer A (50 mM Tris buffer (30 mL, pH 7.4) containing 20% glycerol, 0.15 M NaCl) supplemented with Complete Protease Inhibitor (Boehringer), and ruptured 3 times with a Polytron homogenizer (Kinematica) at 20,000 rpm for 30 sec. The Sf9 microsome fractions were obtained by a conventional method and cryopreserved at −80° C. as a DGAT1 high expression Sf9 microsome.
As a DGAT1 reaction buffer, a solution having a composition of 100 mM Tris-HCl (pH 7.5), 250 mM sucrose, 150 mM MgCl2, 0.01% bovine serum albumin (BSA) was used. […] A mixture of 300 μL of chloroform:methanol (=1:2) was added to the reaction mixture to quench the reaction. The reaction mixture was sufficiently mixed and saline (200 μL) was added to partition the mixture between a chloroform layer (lower layer) and an aqueous layer (upper layer). The chloroform layer (50 μL) was spotted on a thin layer chromatography silica gel plate (TLC plate, Merck) and developed with a solvent (n-hexane:diethyl ether:ethyl acetate:acetic acid=74:15:15:1). The developed TLC plate was dried, contacted with a BAS imaging plate (manufactured by FUJIFILM) and measured with BAS2500 (manufactured by FUJIFILM) 16 hr later to numerically show the amount of [^14C]-triglyceride (TG amount) produced during the reaction. The inhibitory rate was calculated by the following formula:
Inhibitory rate (%)=(1−(TG amount in the case with addition of test compound−blank TG amount)/(control TG amount−blank TG amount))×100
The count of the triglyceride produced in the solution reacted without addition of the test compound was used as a “control TG amount”, and the count of the triglyceride produced in the solution reacted without addition of the test compound and DGAT1 high expression Sf9 microsome was used as a “blank TG amount”.
Regarding `CCCCc1sc(NC(=O)CCC(=O)c2ccc(OCC)c(OCC)c2)cc1-c1ccccc1` [Example 58, N-(5-butyl-4-phenyl-2-thienyl)-4-(3,4-diethoxyphenyl)-4-oxobutanamide], the half-inhibitory concentration (IC50) (as a rule, the midpoint of a concentration-inhibition curve) was 50 to 500 nM.

In the case of `CCOc1ccc(C(=O)CCC(=O)Nc2cc(-c3ccccc3)sc2-c2ccccc2)cc1` [Example 60, N-(2,5-diphenyl-3-thienyl)-4-(4-ethoxyphenyl)-4-oxobutanamide], the half-maximal inhibitory concentration (IC50) lay within 500 to 10000 nM.

Turning to `CCOc1ccc(C(=O)NCCNC(=O)c2cc(-c3ccccc3)n(-c3ccc(OC(F)(F)F)cc3)c2C)cc1` [Example 62, N-{2-[(4-ethoxybenzoyl)amino]ethyl}-2-methyl-5-phenyl-1-[4-(trifluoromethoxy)phenyl]-1H-pyrrole-3-carboxamide], the IC50 was 50 to 500 nM.

In the case of `CCOc1ccc(C(=O)NCCNC(=O)c2cc(-c3ccccc3)n(Cc3ccccc3)c2C)cc1` [Example 63, 1-benzyl-N-{2-[(4-ethoxybenzoyl)amino]ethyl}-2-methyl-5-phenyl-1H-pyrrole-3-carboxamide], the IC50 was in the range of 50 to 500 nM.

As to `CCOc1ccc(C(=O)NCCNC(=O)c2cc(-c3ccccc3)n(-c3ccc(OC)cc3)c2C)cc1` [Example 64, N-{2-[(4-ethoxybenzoyl)amino]ethyl}-1-(4-methoxyphenyl)-2-methyl-5-phenyl-1H-pyrrole-3-carboxamide], the IC50 is 50 to 500 nM.

With `CCOc1ccc(C(=O)NCCNC(=O)c2cc(-c3ccccc3)n(-c3ccc(SC)cc3)c2C)cc1` [Example 65, N-{2-[(4-ethoxybenzoyl)amino]ethyl}-2-methyl-1-[4-(methylthio)phenyl]-5-phenyl-1H-pyrrole-3-carboxamide], the IC50 lay within 10 to 50 nM.

Still in this test, the particulars now being: Table 2, 25 μM dioleoylglycerol, 25 μM [14C]-Oleoyl-CoA, 32° C., 15 min, read-out: DGAT inhibitory activity (according to IC50).
As for `CCOc1ccc(C(=O)CCC(=O)Nc2sc(-c3ccccc3)nc2-c2ccccc2)cc1` [Example 66, 4-(4-ethoxyphenyl)-N-(2,4-diphenyl-1,3-thiazol-5-yl)-4-oxobutanamide], the IC50 lay within 500 to 10000 nM.

Take `O=C(CCC(=O)c1ccc2c(c1)OCCO2)Nc1nc(-c2ccccc2)c(Cc2ccccc2)s1` [Example 67, N-(5-benzyl-4-phenyl-1,3-thiazol-2-yl)-4-(2,3-dihydro-1,4-benzodioxin-6-yl)-4-oxobutanamide]: the IC50 was 50 to 500 nM.

Consider `O=C(CCC(=O)c1ccc2c(c1)OCCCO2)Nc1nc(-c2ccccc2)c(Cc2ccccc2)s1` [Example 68, N-(5-benzyl-4-phenyl-1,3-thiazol-2-yl)-4-(3,4-dihydro-2H-1,5-benzodioxepin-7-yl)-4-oxobutanamide], for which the IC50 was in the range of 10 to 50 nM.

Regarding `CCCCc1ccc(C(=O)c2sc(NC(=O)CCC(=O)c3cc(OCC)c(OCC)cc3C)nc2-c2ccccc2)cc1` [Example 69, N-[5-(4-butylbenzoyl)-4-phenyl-1,3-thiazol-2-yl]-4-(4,5-diethoxy-2-methylphenyl)-4-oxobutanamide], the IC50 fell in the range of 50 to 500 nM.

Consider `CCOc1ccc(C(=O)CCC(=O)Nc2cc(-c3ccccc3)c(Cc3ccccc3)s2)cc1Cl` [Example 70, N-(5-benzyl-4-phenyl-2-thienyl)-4-(3-chloro-4-ethoxyphenyl)-4-oxobutanamide], for which the IC50 lay in the range of 50 to 500 nM.

Consider `COc1ccc(C(=O)CCC(=O)Nc2nc(-c3ccccc3)c(Cc3ccccc3)s2)cc1OC` [Example 71, N-(5-benzyl-4-phenyl-1,3-thiazol-2-yl)-4-(3,4-dimethoxyphenyl)-4-oxobutanamide], for which the IC50 was no more than 10 nM.

With `CCc1ccc(C(=O)CCC(=O)Nc2nc(-c3ccccc3)c(Cc3ccccc3)s2)s1` [Example 72, N-(5-benzyl-4-phenyl-1,3-thiazol-2-yl)-4-(5-ethyl-2-thienyl)-4-oxobutanamide], the IC50 is 10 to 50 nM.

Consider `CCOc1cc(C)c(C(=O)CCC(=O)Nc2cc(-c3ccccc3)c3cc(Cl)ccc3n2)cc1OCC` [Example 73, N-(6-chloro-4-phenylquinolin-2-yl)-4-(4,5-diethoxy-2-methylphenyl)-4-oxobutanamide], for which the IC50 was 50 to 500 nM.

As for `CCOc1ccc(C(=O)CCC(=O)Nc2cc(-c3ccccc3)c3ccccc3n2)cc1OCC` [Example 74, 4-(3,4-diethoxyphenyl)-4-oxo-N-(4-phenylquinolin-2-yl)butanamide], the IC50 is no more than 10 nM.

Take `O=C(CCC(=O)c1ccc2c(c1)CCCC2)Nc1cc(-c2ccccc2)c2cc(Cl)ccc2n1` [Example 75, N-(6-chloro-4-phenylquinolin-2-yl)-4-oxo-4-(5,6,7,8-tetrahydronaphthalen-2-yl)butanamide]: the IC50 lay in the range of 50 to 500 nM.

`CCOc1ccc(C(=O)CCC(=O)Nc2cc(-c3ccc(C)cc3)c3cc(Br)ccc3n2)cc1OCC` [Example 76, N-[6-bromo-4-(4-methylphenyl)quinolin-2-yl]-4-(3,4-diethoxyphenyl)-4-oxobutanamide]: the IC50 was in the range of 10 to 50 nM.

As to `CCOC(=O)/C=C/c1ccc2nc(NC(=O)CCC(=O)c3ccc(OCC)c(OCC)c3)cc(-c3ccc(C)cc3)c2c1` [Example 77, ethyl(2E)-3-[2-{[4-(3,4-diethoxyphenyl)-4-oxobutanoyl]amino}-4-(4-methylphenyl)quinoline-6-yl]acrylate], the IC50 lay within 10 to 50 nM.

For `CCOc1ccc(C(=O)CCC(=O)Nc2cc(-c3ccc(C)cc3)c3cc(/C=C/C(=O)OC(C)(C)C)ccc3n2)cc1OCC` [Example 78, tert-butyl (2E)-3-[2-{[4-(3,4-diethoxyphenyl)-4-oxobutanoyl]amino}-4-(4-methylphenyl)quinoline-6-yl]acrylate], the IC50 is 50 to 500 nM.

Take `CCOc1ccc(C(=O)CCC(=O)Nc2cc(-c3ccccc3)c3ccccc3n2)cc1` [Example 79, 4-(4-ethoxyphenyl)-4-oxo-N-(4-phenylquinolin-2-yl)butanamide]: the IC50 was 10 to 50 nM.

In the case of `CCOc1ccc(C(=O)CCC(=O)Nc2cc(-c3cccc(OC)c3)c3ccccc3n2)cc1OCC` [Example 80, 4-(3,4-diethoxyphenyl)-N-[4-(3-methoxyphenyl)quinolin-2-yl]-4-oxobutanamide], the IC50 fell in the range of 10 to 50 nM.

Take `CCOc1ccc(C(=O)CCC(=O)Nc2cc(-c3ccccc3)c3ccc(Br)cc3n2)cc1OCC` [Example 81, N-(7-bromo-4-phenylquinolin-2-yl)-4-(3,4-diethoxyphenyl)-4-oxobutanamide]: the IC50 lay within 50 to 500 nM.

Turning to `CCOc1ccc(C(=O)CCC(=O)Nc2cc(-c3ccccc3)c3ccc(/C=C/C(=O)OC(C)(C)C)cc3n2)cc1OCC` [Example 82, tert-butyl (2E)-3-(2-{[4-(3,4-diethoxyphenyl)-4-oxobutanoyl]amino}-4-phenylquinoline-7-yl)acrylate], the IC50 is 50 to 500 nM.

As to `CCOc1ccc(C(=O)CCC(=O)Nc2cc(-c3ccccc3)c3ccc(/C=C/C(=O)O)cc3n2)cc1OCC` [Example 83, (2E)-3-(2-{[4-(3,4-diethoxyphenyl)-4-oxobutanoyl]amino}-4-phenylquinoline-7-yl)acrylic acid], the IC50 was in the range of 50 to 500 nM.

With `CCOc1ccc(C(=O)CCC(=O)Nc2cc3ccccc3c(-c3ccccc3)n2)cc1OCC` [Example 84, 4-(3,4-diethoxyphenyl)-4-oxo-N-(1-phenylisoquinolin-3-yl)butanamide], the IC50 is 500 to 10000 nM.

With `CCOc1ccc(C(=O)CCC(=O)Nc2cc3ccccc3c(N3CCCCC3)n2)cc1OCC` [Example 85, 4-(3,4-diethoxyphenyl)-4-oxo-N-[1-(piperidin-1-yl)isoquinolin-3-yl]butanamide], the IC50 was in the range of 500 to 10000 nM.
